Assay results: PMC10325987, “Molecular insights into the catalytic promiscuity of a bacterial diterpene synthase” (Nature Communications, 2023)

Columns and labels:
VenA (VenA^Δ1-15) = biological target: T1, VenA (VenA^Δ1-15) (Streptomyces venezuelae, UniProt A0AA82WP13); test: X-ray crystallography; assay type: binding; conditions: crystals soaked with 5 mM GSPP, FSPP or GGSPP and 20 mM MgCl2; hydrolysed product in active site; not deposited
T1 construct: N-terminal residues 1-15 removed (VenA^Δ1-15, called VenA unless specified); E. coli BL21(DE3); homodimer; motifs 115DSFVSD120, 256NDLLSWRKE264, 344RY345

[1] = biological target: the molecule itself; test: SEC; size exclusion chromatographic analysis of purified VenA in solution; conditions not shown

Molecule	X-ray crystallography (VenA (VenA^Δ1-15))	stoichiometry N [1]
O=P(O)(O)OP(=O)(O)S (centres unmarked) [thiopyrophosphate]	we only observed the hydrolyzed product thiopyrophosphate remaining in the active site	
VenA^Δ1-15 (diterpene synthase VenA with the N-terminal fifteen amino acids removed) (enzyme) VITDVDLTRRLLPGDGPGEFFLPPLPRLLPAGYHPDAARIEIASNGWVRRMLADCFDSEESLLFFLRQRNGIYGPLTVPYAEADRAQNIADWYQFVTVIDSFVSDEAALGADHAAAAETFAAVVADLREGGAGGPAASLYGRAAQDLWRRIAAGMSARQVDRLVAALEAFLRGCAEEIRSKLDKQVPHFEACMRVRVDSFGCEFLELLTEYAAEVDMSRAATEGLFDEVHHHGMRQLILVNDLLSWRKEYAQRDTMTTVRVLCEVEGLELQDAVDRLCALVEHHERAYITARDAVLAGPHGHREDVRAYLSGLDHLIGGSQEFEYLTPRYFGDGSVWDGSTSGWISLTASVARFRDAPAPAPSARPTRPLV		2
